Measured values: patent US20260217701A1, “SELECTIVE BET INHIBITORS AND USES THEREOF” (Tay Therapeutics Limited, priority 2022, published 2026)
Several values for one entry are separate records, joined by “and”; a condition that tells them apart may be missing. Identical values can stand only once.

Assay: CIA study: animal body weight
Conditions: for Average animal body weight percent change: CIA; for Animal body weight percent change (%): Group 3 (CIA + Dexamethasone), individual animals

SMILES: C[C@@H]1C[C@H]2[C@@H]3CCC4=CC(=O)C=C[C@]4(C)[C@@]3(F)[C@@H](O)C[C@]2(C)[C@@]1(O)C(=O)CO [Dexamethasone, dexamethasone]
- Average animal body weight percent change (Day 0): 0.00%
- Animal body weight percent change (%) (Day 0): 0.00%
- Average animal body weight percent change (Day 1): −2.80%
- Animal body weight percent change (%) (Day 1): 0.66% and −7.41% and −1.72% and −2.37% and 1.20% and −6.21%
- Average animal body weight percent change (Day 2): −3.22%
- Animal body weight percent change (%) (Day 2): −0.66% and −6.79% and 1.15% and −1.78% and −3.01% and −8.07%
- Average animal body weight percent change (Day 3): −4.37%
- Animal body weight percent change (%) (Day 3): −1.99% and 11.11% and 0.57% and −2.96% and −2.41% and −9.94%
- Average animal body weight percent change (Day 4): −4.95%
- Animal body weight percent change (%) (Day 4): −2.65% and −9.26% and −2.30% and −5.33% and −6.02%
- Average animal body weight percent change (Day 5): −4.95%
- Animal body weight percent change (%) (Day 5): −2.65% and −8.02% and −5.17% and −2.96% and −4.82%
- Average animal body weight percent change (Day 6): −4.41%
- Animal body weight percent change (%) (Day 6): −2.65% and 6.17% and −1.72% and −4.73% and −6.63%
- Average animal body weight percent change (Day 7): −3.35%
- Animal body weight percent change (%) (Day 7): −0.66% and −5.56% and 2.30% and −4.14% and −3.61%
- Average animal body weight percent change (Day 8): −3.90%
- Average animal body weight percent change (Day 9): −1.84%
- Average animal body weight percent change (Day 10): −2.30%
- Average animal body weight percent change (Day 11): −1.24%
- Average animal body weight percent change (Day 12): −1.18%
- Average animal body weight percent change (Day 13): −0.91%
- Average animal body weight percent change (Day 14): −1.24%
- Average animal body weight percent change (Day 15): 0.43%
- Animal body weight percent change (%) (Day 15): 9.93% and −3.09% and 2.30% and 0.59% and 1.20% and −6.83% and 2.33% and −0.63%
- Average animal body weight percent change (Day 16): −0.57%
- Animal body weight percent change (%) (Day 16): 3.97% and −5.56% and 7.47% and −0.59% and −4.22% and −8.70% and 1.16% and 1.88%
- Average animal body weight percent change (Day 17): 0.62%
- Animal body weight percent change (%) (Day 17): 5.96% and −4.32% and 8.05% and −2.37% and 0.60% and −6.83% and −1.16% and 5.00%
- Average animal body weight percent change (Day 18): 1.02%
- Animal body weight percent change (%) (Day 18): 3.97% and −6.17% and 8.62% and −2.37% and 0.00% and −5.59% and 4.07% and 5.63%
- Average animal body weight percent change (Day 19): 1.53%
- Animal body weight percent change (%) (Day 19): 7.28% and −9.26% and 10.34% and 0.59% and 1.20% and −5.59% and 5.81% and 1.88%
- Average animal body weight percent change (Day 20): 1.66%
- Animal body weight percent change (%) (Day 20): 7.95% and −3.70% and 5.75% and 2.37% and 0.60% and 4.35% and 4.65% and 0.00%
- Average animal body weight percent change (Day 21): 1.30%
- Animal body weight percent change (%) (Day 21): 8.61% and −3.70% and 7.47% and 0.00% and −3.01% and −5.59% and 2.91% and 3.75%
